These are literature values, as cited in patent US11162142B2, “BCR-ABL1 splice variants and uses thereof” (Quest Diagnostics Investments Incorporated, priority 2010, dated 2021).

Structures can show the parent of a compound that is named as a salt. Where two headings read alike, the source gives them in different places.

The test system of data set [1] is CML. As to conditions: all stages of CML.
Data set [2] relates to patients with CML.

Consider `Cc1ccc(NC(=O)c2ccc(CN3CCN(C)CC3)cc2)cc1Nc1nccc(-c2cccnc2)n1` [imatinib, imatinib mesylate], for which the Effectiveness of monotherapy entry in data set [1] is “effective for all stages of CML”. For the same compound, the “Primary resistance (failure to achieve any hematologic response) rate” value is 9% in data set [2] (accelerated-phase CML), 51% in data set [2] (blast-phase CML) and 3% in data set [2] (chronic-phase CML). Besides, the results for the “Secondary resistance (hematologic recurrence) rate” value in data set [2] (accelerated-phase CML), in data set [2] (blast-phase CML) and in data set [2] (chronic-phase CML) were 32%, 41% and 22%, respectively.
